Patent publication US6632643B2, “Use of α-1,4-glucan lyase for preparation of 1,5-D-hydrofructose” (Danisco A/S, priority 1993, dated 2003)
Marks after values point to notes of the source that are not given here.

Legend:
α-1,4-glucan lyase = assay: Activity of the lyase towards maltosaccharides (summary); assay type: biochemical
M. vulgaris lyase = assay: Reversible inhibitors of the M. vulgaris lyase; assay type: biochemical, Morchella vulgaris; settings: 0.1 M inhibitor
Protocol: (§1) The reaction was carried out at 30 ° C. for 30 min and stopped by the addition of 3,5-dinitrosalicylic acid reagent. Optical density at 550 nm was measured after standing at room temperature for 10 min.

M. costata lyase = assay: Reversible and irreversible inhibitors of the fungal lyase (M. costata); assay type: biochemical, Morchella costata; settings: for decrease of lyase activity (inhibition): 0.1 M inhibitor
Protocol: as §1
Under the same assay conditions and in the presence of 2 mM PCMB, the activity decreased by 60% for the M. costata lyase and 98% for the lyase from the fungal infected red algae. This means that the fungal lyase was much less sensitive to heavy metal inhibition.

[1] = system: α-1,4-glucan lyase isolated from M. costata; assay: Oligosaccharide specificity and AF formation by M. costata lyase, Dionex HPLC; assay type: biochemical, Morchella costata; settings: 30° C.
Protocol: The specificity of α-1,4-glucan lyase isolated from M. costata for different oligosaccharides was tested. […] The oligosaccharides were dissolved in H2O at a concentration of 8 mg/ml. The enzyme assay contained 150 μl substrate G2/G3/G4/G5/G6/G7, 120 μl 0.1M MBS pH 6.3 and 30 μl purified enzyme. The reaction mixture was incubated for 60 min at 30° C. Afterwards the reaction was stopped by boiling for 3 min and 900 μl absolute ethanol was added for precipitation. After centrifugation at 20.000×g for 5 min at 4° C. the supernatant was transferred to a new eppendorf tube and lyophilized.
The freeze-dried samples were dissolved in 1000 μl H2O and were filtrated through a 0.22 μm Millipore filter before 25 μl of the sample was loaded on the Dionex HPLC.
Analyses were performed on a Dionex 4500i chromatography system consisting of a GPM-2 pump and a PED detector which was used in pulse-amperometric detection mode.
α-1,4-glucan lyase from M.costata hydrolyses starch to the end-product 1,5-anhydrofructose. The end-product was shown by HPLC, method 2. The enzyme assay contained 500 μl amylopectin (20 mg/ml, dissolved in H2O), 400 μl 0.1M MES pH 6.3 and 100 μl purified enzyme. The reaction mixture was incubated at 30° C. and the reaction was stopped by boiling after 30 or 120 min incubation. […]

lyase from M. vulgaris = assay: Relative degrading rates of the lyase from M. vulgaris towards various substrates; assay type: biochemical, Morchella vulgaris; settings: for Activity (%) (maltotetraose = 100%): all substrates 10 mg ml^−1
Protocol: The activity observed for maltotetraose is treated as 100%. The final concentration of all substrates was 10 mg ml^−1.

[2] = system: α-1,4-glucan lyase from the parasite-free red seaweed Gracilariopsis lemaneiformis; assay: Degradation rates of the Californian algal lyase on various substrates; assay type: biochemical; settings: for AF released: substrate 10 mg/ml, pH 3.8, 40 min at 45° C.
Protocol: Reaction conditions: The reaction mixture contained 10 mM of HOAc-NaOAc (pH 3.8). The substrate concentration was 10 mg/ml. The final volume was 100 ul after the addition of lyase and water. The reaction time was 40 min at 45° C.

lyase from M. costata = assay: Relative degrading rates of the lyase from M. costata towards various substrates; assay type: biochemical, Morchella costata; settings: for activity (maltotetraose as 100%): purified fungal lyase, section B.1.4.3
[3] = Induction period of 50% mayonnaise in bomb calorimeter, 80° C., pure O2; settings: +500 ppm
Protocol: In the test procedure the anti-oxidants were added to the mayonnaise to provide an anti-oxidant concentration in the order of about 500 ppm. The mayonnaise was then placed in a bomb calorimeter at temperature 80° C. containing pure O2. An induction period to the onset of substantial oxidation of the product is then measured.

[4] = ESR analysis of hydroxyl radical scavenging (Fenton reaction, DMPO spin trap); settings: H2O2 0.17 mM, Fe2+ 4.8 μM
Protocol: Hydroxyl radicals were generated by a Fenton reaction with H2O2 (0.17 mM) and FeSO4 (4.8 μM). The generated radicals were trapped by 5,5-dimethyl-1-pyrroline N-oxide (DMPO, 9.7 mM). AF was added in concentrations of 1.3 mM and 6.3 mM. A water soluble extract of rosemary (Rosmarinus officinalis L.) was analyzed in a concentration of 0.25 mg/ml (in grams equivalent to 1.26 mM AF). Measurements were carried out at room temperature (20±1° C.) after 120 s and repeated for the same reaction mixture after 300 s with the following spectrometer settings: Center field 3475.60 G; sweep width 55 G; microwave power 20 mW; modulation frequency 100 kHz; modulation amplitude 1.01 G; receiver gain 1.00·10^5; conversion time 81.92 ms time constant 163.84 ms and sweep time 83.89 s.
The generated hydroxyl radicals were trapped by DMPO. The spin adduct gives rise to a characteristic 1:2:2:1 ESR spectrum. The peak height of the spectrum is proportional to the quantitative amount of generated spin adduct. Addition of both DMPO and AF will set up a competition between the spin trap and AF. A reduction of peak height will indicate a good scavenging activity of AF.

[5] = Electrochemical oxygen consumption in methyl linoleate emulsion; settings: AF 15, 146 and 680 μM; MMb initiated; pH 5.8; 25.0 °C
Protocol: The activity of AF was investigated in a methyl linoleate emulsion as described by Jorgensen and Skibsted (Z. Lebensm. Unters. Forsch. (1993) 196: 423-429) with minor modifications: To 5.00 ml of a 1.33 mM methyl linoleate emulsion in 5.0 mM aqueous phosphate buffer with pH=5.8 and 0.2 w/w % Tween 20 as emulsifier was added AF in the following concentrations: 0, 15, 146 and 680μM. The oxidation in the system was initiated by addition of 50 μl 0.26 M metmyoglobin (MMb) final concentration 0.26 mM. Immediately after initiating the reaction the sample was injected to a thermostated (25.0±0.1° C.) 70 μl closed cell, effectively excluding diffusion of oxygen into the system. The oxygen consumption was measured by a Clark electrode, which was connected to a PC data collection program. The relative oxygen concentration (%) was registered every 30s.

[6] = Induction period of yogurt salad dressing with 50% oil; settings: 500 ppm; PF = IP with antioxidant / IP without
Excerpt: For each temperature defined as PF=IP of the oil with added antioxidant/IP of the same oil without added antioxidant

[7] = Reduction of 3,5-dinitrosalicylic acid by AF; assay type: physicochemical
[8] = system: lyase from the fungal infected algae; assay: Effect of reaction media on production of AF by the lyase; assay type: biochemical, fungal infected Gracilariopsis lemaneiformis; settings: NaCl 0.85% (0.145 M) in the reaction mixture
Excerpt: The production of AF using either pure water or 0.85% NaCl as reaction medium decreased the yield.

[9] = system: lyase from the fungal infected red algae; assay: Inhibition, activation and stabilisation of the lyase from fungal infected algae; assay type: biochemical, fungal infected Gracilariopsis lemaneiformis
Protocol: […] The reaction was carried out at 30° C. for 30 min and stopped by the addition of 3,5-dinitrosalicylic acid reagent. Optical density at 550 nm was measured after standing at room temperature for 10 min.

[10] = system: α-1,4-glucan lyase from the parasite-free red seaweed Gracilariopsis lemaneiformis; assay: PCMB inhibition of the lyase from Californian alga; assay type: biochemical; settings: final concentration 2 mM
Protocol: 7. At a final concentration of 2 mM, p-chloromercuribenzoic acid (PCMB) inhibited the lyase activity by 96%, indicating the —SH group(s) is essential for the enzymatic activity.

[11] = system: lyase from the fungal infected Gracilariopsis lemaneiformis; assay: Reaction rates with glycogen and amylopectin, lyase from fungal infected Gracilariopsis lemaneiformis; assay type: biochemical

## OC[C@H]1O[C@H](O[C@H]2[C@H](O)[C@@H](O)C(O)O[C@@H]2CO)[C@H](O)[C@@H](O)[C@@H]1O (mixture of isomers) [Maltose, maltose]
α-1,4-glucan lyase
  lyase activity towards maltosaccharide: low activity
M. vulgaris lyase; Amylopectin (1%)
  inhibition of lyase reaction: 80%
M. vulgaris lyase; Glycogen (1%)
  inhibition of lyase reaction: 57%
M. costata lyase; Amylopectin 2%
  decrease of lyase activity (inhibition): (67.2%)
M. costata lyase; Glycogen 2%
  decrease of lyase activity (inhibition): (49.7%)
[1]; 8 mg/ml substrate, pH 6.3, 60 min
  1,5-anhydrofructose formed: almost no 1,5-anhydrofructose was formed
Lyase from M. vulgaris
  Activity (%) (maltotetraose = 100%): 10.1%
[2]
  AF released: 657 nmol
Lyase from M. costata
  activity (maltotetraose as 100%): 2%

## O=C1CO[C@H](CO)[C@@H](O)[C@@H]1O [AF, 1,5-D-anhydrofructose]
[3]
  IP (hours), Induction Period: 32.0 h
[4]; Anhydro fructose 1.3 mM
  Peak height [120 s]: 2634
  Peak height [300 s]: 2545
[4]; Anhydro fructose 6.3 mM
  Peak height [120 s]: 1781
  Peak height [300 s]: 1900
[1]; amylopectin, 30 and 120 min incubation
  inhibition of enzyme activity by the endproduct: not inhibited
[5]
  oxygen consumption (relative oxygen concentration): a lag-phase is observed
[6]
  PF: 1.06
[7]
  reduction of 3,5-dinitrosalicylic acid to 3-amino-5-nitrosalicylic acid: can easily reduce

## O=C[C@H](O)[C@@H](O)[C@H](O)[C@H](O)CO [Glucose, glucose]
M. vulgaris lyase; Amylopectin (1%)
  inhibition of lyase reaction: 28%
M. vulgaris lyase; Glycogen (1%)
  inhibition of lyase reaction: 5%
M. costata lyase; Amylopectin 2%
  decrease of lyase activity (inhibition): 7%
M. costata lyase; Glycogen 1% (10 mg/ml)
  decrease of lyase activity (inhibition): 0.000%
M. costata lyase; Glycogen 1% (10 mg/ml), listed as glucose
  decrease of lyase activity (inhibition): not affected
Lyase from M. vulgaris; incubated for 48 h
  degradation (AF detectable on TLC plates): no AF detectable
[2]
  degradation by the lyase: not able to degrade
Lyase from M. costata; incubated for 48 h
  degradation (AF detectable on TLC plates): no AF detectable

## OC[C@H]1O[C@H](O[C@H]2[C@H](O)[C@@H](O)[C@@H](O[C@H]3[C@H](O)[C@@H](O)[C@@H](O[C@H]4[C@H](O)[C@@H](O)[C@@H](O[C@H]5[C@H](O)[C@@H](O)C(O)O[C@@H]5CO)O[C@@H]4CO)O[C@@H]3CO)O[C@@H]2CO)[C@H](O)[C@@H](O)[C@@H]1O (stereo partly drawn) [Maltopentaose, maltopentaose]
α-1,4-glucan lyase
  lyase activity towards maltosaccharide: highest activity
Lyase from M. vulgaris
  Activity (%) (maltotetraose = 100%): 79.3%
[2]
  AF released: 674 nmol
Lyase from M. costata; substrate 2 mg/ml
  relative degrading rate (maltotetraose = 100%): 107.1%
Lyase from M. costata; substrate 4 mg/ml
  relative degrading rate (maltotetraose = 100%): 100.1%
Lyase from M. costata; substrate 10 mg/ml
  relative degrading rate (maltotetraose = 100%): 99.7%

## OC[C@H]1O[C@H](O[C@H]2[C@H](O)[C@@H](O)[C@@H](O[C@H]3[C@H](O)[C@@H](O)[C@@H](O[C@H]4[C@H](O)[C@@H](O)C(O)O[C@@H]4CO)O[C@@H]3CO)O[C@@H]2CO)[C@H](O)[C@@H](O)[C@@H]1O (stereo partly drawn) [Maltotetraose, maltotetraose]
α-1,4-glucan lyase
  lyase activity towards maltosaccharide: highest activity
Lyase from M. vulgaris
  Activity (%) (maltotetraose = 100%): 100.0%
[2]
  AF released: 670 nmol
Lyase from M. costata
  activity (maltotetraose as 100%): 100%
Lyase from M. costata; substrate 2 mg/ml
  relative degrading rate (maltotetraose = 100%): 100%
Lyase from M. costata; substrate 4 mg/ml
  relative degrading rate (maltotetraose = 100%): 100%
Lyase from M. costata; substrate 10 mg/ml
  relative degrading rate (maltotetraose = 100%): 100%

## OCC1OC(OC2C(CO)OC(OC3C(CO)OC(O)C(O)C3O)C(O)C2O)C(O)C(O)C1O (stereo not drawn) [Maltotriose, maltotriose]
α-1,4-glucan lyase
  lyase activity towards maltosaccharide: lower activity
Lyase from M. vulgaris
  Activity (%) (maltotetraose = 100%): 49.8%
[2]
  AF released: 654 nmol
Lyase from M. costata
  activity (maltotetraose as 100%): 56%
Lyase from M. costata; substrate 2 mg/ml
  relative degrading rate (maltotetraose = 100%): 40.6%
Lyase from M. costata; substrate 4 mg/ml
  relative degrading rate (maltotetraose = 100%): 58.6%
Lyase from M. costata; substrate 10 mg/ml
  relative degrading rate (maltotetraose = 100%): 56.0%

## [Cl-].[Na+] [NaCl]
[8]
  increase of AF yield: up to 1 -fold

## O=C(O)c1cc[c]([Hg][Cl])cc1 [PCMB, p-chloromercuribenzoic acid]
[9]; 2 mM PCMB
  activity decreased by: 98%
M. costata lyase; 2 mM PCMB
  activity decreased by: 60%
[10]
  inhibition of lyase activity: 96%

## OC[C@H]1NC[C@H](O)[C@@H](O)[C@@H]1O [deoxyjirimycin]
[9]; 25 μM, amylopectin 2%
  activity decreased to (remaining activity): 10.4%
[9]; 100 μM, amylopectin 2%
  lyase activity: completely lost
M. costata lyase; 25 μM, amylopectin 2%
  activity decreased to (remaining activity): 10.4%
M. costata lyase; 100 μM, amylopectin 2%
  lyase activity: completely lost

## Amylopectin
[9]; soluble and immobilized enzyme system
  stabilizing effect on the lyase: stabilizing effect
Lyase from M. vulgaris
  Activity (%) (maltotetraose = 100%): 139.9%
[2]
  substrate concentration at which half of the maximal velocity rate was reached: 3.76 mg/mL
  AF released: 732 nmol
[11]; 25 C.
  relative reaction rates: 0.818^a
[11]; 30 C.
  relative reaction rates: 1.133^a
[11]; 45 C.
  relative reaction rates: 1.17^a
Lyase from M. costata
  degradation by the fungal lyase: also degraded
Lyase from M. costata; substrate 10 mg/ml
  relative degrading rate (maltotetraose = 100%): 106.5%
